In US6559140B2 (Abbott Laboratories, priority 2000, dated 2003):

Molecular target: H3 receptor (Rattus norvegicus, UniProt Q9QYN8)
Experiment: H3 receptor binding, (3H)-N-α-methylhistamine displacement in rat cortical membranes
Conditions: male Sprague-Dawley rat brain cortical membranes, 30 minutes at 25° C., Cheng-Prusoff, geometric mean values of 2-10 separate experiments
Procedure: Briefly, male Sprague-Dawley rat brain cortices were homogenized (1 g tissue/10 mL buffer) in 50 mM Tris-HCl/5 mM EDTA containing protease inhibitor cocktail (Calbiochem) using a polytron set at 20,500 rpm. Homogenates were centrifuged for 20 minutes at 40,000×g. The supernatant was decanted, and pellets were weighed. The pellet was resuspended by polytron homogenization in 40 mL 50 mM Tris-HCl/5 mM EDTA with protease inhibitors and centrifuged for 20 minutes at 40,000×g. […] Test compounds were added to the incubation mixtures prior to initiating the incubation assay by addition of the membranes. Thioperamide (3 μM) was used to determine nonspecific binding. Binding incubations were conducted for 30 minutes at 25° C. and terminated by addition of 2 mL of ice cold 50 mM Tris-HCl (H 7.7) and filtration through 0.3% polyethylenimine-soaked Unifilter plates (Packard). These filters were washed 4 additional times with 2 mL of ice-cold 50 mM Tris-HCl and dried for 1 hour. Radioactivity was determined using liquid scintillation counting techniques. Results were analyzed by Hill transformation and Ki values were determined using the Cheng-Prusoff equation.

H3 receptor, sequence (Q9QYN8 1-397 isoform Q9QYN8-3): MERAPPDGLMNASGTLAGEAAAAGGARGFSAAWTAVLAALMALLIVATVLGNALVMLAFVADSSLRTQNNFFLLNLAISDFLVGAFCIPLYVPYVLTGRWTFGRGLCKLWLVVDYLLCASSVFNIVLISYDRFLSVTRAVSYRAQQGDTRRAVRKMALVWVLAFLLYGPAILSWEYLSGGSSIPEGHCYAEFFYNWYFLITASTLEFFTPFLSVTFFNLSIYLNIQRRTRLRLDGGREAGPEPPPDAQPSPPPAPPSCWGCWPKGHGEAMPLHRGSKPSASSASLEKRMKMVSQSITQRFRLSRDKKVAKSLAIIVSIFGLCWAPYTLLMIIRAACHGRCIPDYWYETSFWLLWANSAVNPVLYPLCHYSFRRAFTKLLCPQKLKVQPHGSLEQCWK

Ki | Structure (SMILES)
1.22 nM | C[C@@H](NC(=O)c1ccc(Cl)c(Cl)c1)C(=O)N1CCN(CCCOc2ccc(-c3noc(CC4CCCC4)n3)c(F)c2)CC1 [Example 176, 3,4-dichloro-N-{(1R)-2-[4-(3-{4-[5-(cyclopentylmethyl)-1,2,4-oxadiazol-3-yl]-3-fluorophenoxy}propyl)-1-piperazinyl]-1-methyl-2-oxoethyl}benzamide]
1.78 nM | CC(C)C(=O)N[C@H](C)C(=O)N1CCCN(CCCOc2ccc(-c3noc(CC4CCCC4)n3)c(F)c2)CC1 [Example 177, N-{(1R)-2-[4-(3-{4-[5-(cyclopentylmethyl)-1,2,4-oxadiazol-3-yl]-3-fluorophenoxy}propyl)-1,4-diazepan-1-yl]-1-methyl-2-oxoethyl}-2-methylpropanamide]
8.2 nM | C[C@@H](NC(=O)c1ccc(Cl)cc1)C(=O)N1CCCN(CCCOc2ccc(-c3noc(CC4CCCC4)n3)c(F)c2)CC1 [Example 178, 4-chloro-N-{(1R)-2-[4-(3-{4-[5-(cyclopentylmethyl)-1,2,4-oxadiazol-3-yl]-3-fluorophenoxy}propyl)-1,4-diazepan-1-yl]-1-methyl-2-oxoethyl}benzamide]
1.5 nM | C[C@@H](NC(=O)c1ccc(C#N)cc1)C(=O)N1CCCN(CCCOc2ccc(-c3noc(CC4CCCC4)n3)c(F)c2)CC1 [Example 179, 4′-cyano-N-{(1R)-2-[4-(3-{4-[5-(cyclopentylmethyl)-1,2,4-oxadiazol-3-yl]-3-fluorophenoxy}propyl)-1,4-diazepan-1-yl]-1-methyl-2-oxoethyl}benzamide]
2.37 nM | C[C@@H](NC(=O)c1ccc(N(C)C)cc1)C(=O)N1CCN(CCCOc2ccc(-c3noc(CC4CCCC4)n3)c(F)c2)CC1 [Example 180, N-{(1R)-2-[4-(3-{4-[5-(cyclopentylmethyl)-1,2,4-oxadiazol-3-yl]-3-fluorophenoxy}propyl)-1-piperazinyl]-1-methyl-2-oxoethyl}-4-(dimethylamino)benzamide]
1.67 nM | C[C@@H](NC(=O)c1cccnc1)C(=O)N1CCN(CCCOc2ccc(-c3noc(CC4CCCC4)n3)c(F)c2)CC1 [Example 181, N-{(1R)-2-[4-(3-{4-[5-(cyclopentylmethyl)-1,2,4-oxadiazol-3-yl]-3-fluorophenoxy}propyl)-1-piperazinyl]-1-methyl-2-oxoethyl}nicotinamide]
2.78 nM | C[C@@H](NC(=O)c1ccccc1Cl)C(=O)N1CCN(CCCOc2ccc(-c3noc(CC4CCCC4)n3)c(F)c2)CC1 [Example 182, 2-chloro-N-{(1R)-2-[4-(3-{4-[5-(cyclopentylmethyl)-1,2,4-oxadiazol-3-yl]-3-fluorophenoxy}propyl)-1-piperazinyl]-1-methyl-2-oxoethyl}benzamide]
2.72 nM | C[C@@H](NC(=O)c1ccc2c(c1)OCO2)C(=O)N1CCN(CCCOc2ccc(-c3noc(CC4CCCC4)n3)c(F)c2)CC1 [Example 183]
10.5 nM | CC(C)Oc1ccc(C(=O)N[C@H](C)C(=O)N2CCN(CCCOc3ccc(-c4noc(CC5CCCC5)n4)c(F)c3)CC2)cc1 [Example 184, N-{(1R)-2-[4-(3-{4-[5-(cyclopentylmethyl)-1,2,4-oxadiazol-3-yl]-3-fluorophenoxy}propyl)-1-piperazinyl]-1-methyl-2-oxoethyl}-4-isopropoxybenzamide]
3.28 nM | COc1ccc(C(=O)N[C@H](C)C(=O)N2CCN(CCCOc3ccc(-c4noc(CC5CCCC5)n4)c(F)c3)CC2)cc1F [Example 185, N-{(1R)-2-[4-(3-{4-[5-(cyclopentylmethyl)-1,2,4-oxadiazol-3-yl]-3-fluorophenoxy}propyl)-1-piperazinyl]-1-methyl-2-oxoethyl}-3-fluoro-4-methoxybenzamide]
8.82 nM | C[C@@H](NC(=O)c1ccc(C(=O)O)cc1)C(=O)N1CCN(CCCOc2ccc(-c3noc(CC4CCCC4)n3)c(F)c2)CC1 [Example 186, 4-[({(1R)-2-[4-(3-{4-[5-(cyclopentylmethyl)-1,2,4-oxadiazol-3-yl]-3-fluorophenoxy}propyl)-1-piperazinyl]-1-methyl-2-oxoethyl}amino)carbonyl]benzoic acid]
